Five compounds from patent US20180264088A1, “USE OF CREATINE KINASE AND DERIVED PEPTIDES THEREOF TO RELIEVE PAIN” (CENTRE NATIONAL DE LA RECHERCHE SCIENTIFIQUE, priority 2015, published 2018) can be followed below.

Experiment [1] deals with C57Bl/6J neuropathic mice. The experiment is described as follows: Intraperitoneal injection, mechanical nociceptive thresholds of neuropathic (cuffed) mice, von Frey filaments. The experiment is classed as in vivo. To be noted: 10 nmoles; for effect on mechanical thresholds of Sham animals: Sham mice. As to the method: Experiments were performed on adult male C57Bl/6J mice (6 weeks old, Charles River, L'Arbresle, France). Animals were housed in groups of 5, under standard conditions (room temperature: 22° C.; 12/12-hour light-dark cycle) with ad libitum access to food and water. All experiments were conducted according to the recommendations of the European Committee Council Direction of Sep. 22, 2010 (2010/63/EU).
All surgeries were done under aseptic conditions and ketamine/xylazine anaesthesia (ketamine: 17 mg/ml, xylazine: 2.5 mg/ml, i.p., 4 ml/kg, i.p.; Centravet, Taden, France). The right sciatic nerve was cuffed with a section of polyethylene tubing (cuff group) as previously described [Mosconi et Kruger, Pain, 64(1): 37-57, 1996] [7].
The mechanical threshold for hind paw withdrawal was determined using Von Frey hairs. Mice were placed in clear plexiglass boxes on an elevated mesh screen. Von Frey filaments (Bioseb, Chaville, France) were applied to the plantar surface of each hind paw in a series of ascending forces (0.4 g-15 g). Filaments were tested 5 times per paw, and the mechanical threshold was defined as 3 or more withdrawals out of the 5 trials.

In experiment [2] the target is CK-M (Homo sapiens, UniProt P06732). The experiment is described as follows: Inhibitory effect of morphine on ATP formation by creatine kinase. The experiment is classed as biochemical. The conditions noted are these: ratio 3n/1n (FIG. 2).
Sequence of CK-M (P06732 whole entry, species assumed): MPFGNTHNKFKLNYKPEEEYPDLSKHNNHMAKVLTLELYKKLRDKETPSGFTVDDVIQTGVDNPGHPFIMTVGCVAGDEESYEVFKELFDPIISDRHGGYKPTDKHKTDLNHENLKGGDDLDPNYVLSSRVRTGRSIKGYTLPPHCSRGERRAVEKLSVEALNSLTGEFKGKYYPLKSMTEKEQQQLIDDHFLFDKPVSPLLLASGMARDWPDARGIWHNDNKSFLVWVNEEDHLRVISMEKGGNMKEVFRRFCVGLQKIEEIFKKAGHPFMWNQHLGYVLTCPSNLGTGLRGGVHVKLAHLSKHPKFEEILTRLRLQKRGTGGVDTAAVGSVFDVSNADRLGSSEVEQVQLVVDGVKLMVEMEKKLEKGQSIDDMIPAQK
Experiment [3] relates to C57Bl/6J mice. The experiment is described as follows: Intrathecal injection, mechanical nociceptive thresholds of healthy mice, von Frey filaments. The experiment is classed as in vivo. To be noted: for analgesia (mechanical nociceptive threshold vs control): right leg, two-ways ANOVA. As to the method: (§1) Experiments were performed on adult male C57Bl/6J mice (6 weeks old, Charles River, L'Arbresle, France). Animals were housed in groups of 3, under standard conditions (room temperature: 22° C.; 12/12-hour light-dark cycle) with ad libitum access to food and water. All experiments were conducted according to the recommendations of the European Committee Council Direction of Sep. 22, 2010 (2010/63/EU).
The functional properties of peptides P1 (20 nmoles) and P4 (10 nmoles) were evaluated through injections in the spinal cord of 4 groups of 6 mice C57B16/J (intrathecal injection, volume of 5 μl). […] Mice were previously placed under gaseous anesthesia with isoflurane (volatile anesthetic agent) with a minimum alveolar concentration (MAC) of 1.34%. A 27-gauge needle connected to a syringe was inserted between the vertebrae L5 and L6, in the subarachnoid space. Isoflurane induced a general anesthesia with respiratory depression in mice.
The mechanical threshold for hind paw withdrawal was determined using Von Frey hairs. Mice were placed in clear plexiglass boxes on an elevated mesh screen. Von Frey filaments (Bioseb, Chaville, France) were applied to the plantar surface of each hind paw in a series of ascending forces (0.4 g-15 g). Filaments were tested 5 times per paw, and the mechanical threshold was defined as 3 or more withdrawals out of the 5 trials. Lithium chloride and naloxone (Sigma-Aldrich, St. Louis, U.S.A.) were diluted in NaCl 0.9% (w/v).

The subject of experiment [4] is cuffed mice C57Bl6/J. The experiment is described as follows: Intrathecal injection of AI-25, mechanical nociceptive threshold of cuffed mice. In kind it is in vivo. To be noted: 10 nmoles. As to the method: (§2) Experiments and surgeries were performed as previously described.
The functional property of peptide AI-25 (10 nmoles) was evaluated through injections in the spinal cord of 8 mice C57B16/J (intrathecal injection, volume 5 μl). The aim was to study the consequences of these injections on mechanical nociceptive threshold of cuffed mice using the […].
(§3) The mechanical threshold for hind paw withdrawal was determined using Von Frey filaments as previously described.

For experiment [5], the system named is cuffed mice C57Bl6/J. The experiment can be described thus: Intrathecal injection of KN-50, mechanical nociceptive threshold of cuffed mice. In kind it is in vivo. To be noted: 33 nmoles, vs saline solution. How it is done:
as §2
The functional property of peptide KN-50 (33 nmoles) and NaCl 0.9% was evaluated through injections in the spinal cord of 8 mice C57B16/J (intrathecal injection, volume 5 μl). The aim was to study the consequences of these injections on mechanical nociceptive threshold of cuffed mice, in comparison of saline solution.
as §3

The nature of experiment [6]: ELISA on peptide-coated plate: affinity for morphine. To be noted: ligand 300 μM to 0.1 μM. (In general: An ELISA detects its analyte on a solid surface through an enzyme-linked reagent.)
The test system of experiment [7] is cuffed rats (neuropathic). The experiment is described as follows: Intrathecal injection, cuff neuropathic rat model, calibrated forceps test. In kind it is in vivo. To be noted: 10 nmoles. As to the method: as §1, with “Wistar at” for “C57Bl/6J mice”, “(2010/63/EU). Procedures were positively evaluated by the regional ethical committee, and experiments were conducted with an official authorization for animal experimentation from the French Department of Agriculture (license 67-116 to P.P.).” for “(2010/63/EU).”
All surgeries were done under aseptic conditions and ketamine/xylazine anaesthesia (ketamine: 17 mg/ml, xylazine: 2.5 mg/ml, i.p., 4 ml/kg, i.p.; Centravet, Taden, France). The right sciatic nerve was cuffed with a section of polyethylene tubing (cuff group) as previously described [Mosconi et Kruger, Pain, 64(1): 37-57, 1996] [7]. Sham-operated mice underwent the same surgical procedure as cuffed animals without implantation of the cuff (sham group).
The functional property of peptide P4 (10 nmoles) was evaluated through injections in the spinal cord of 1 groups of 3 rats (intrathecal injection, volume of 5 μl). The aim was to study the consequences of these injections on mechanic nociceptive threshold of cuffed animals in comparison of the sham group (control), using the calibrated forceps test. Rats were previously placed under gaseous anesthesia with isoflurane (volatile anesthetic agent) with a minimum alveolar concentration (MAC) of 1.34%. A 27-gauge needle connected to a syringe was inserted between the vertebrae L5 and L6, in the subarachnoid space.
The mechanical response was evaluated using digital calibrated forceps (Bioseb, Chaville, France) according to company's recommendations, before and 1 to 6 hours after intrathecal injections.

Where [8] appears, read: neuropathic mice, comparison to baseline.
Where [9] appears, read: intrathecal, 10 nmoles, healthy mice.
[10] abbreviates: intrathecal, 20 nmoles, healthy mice.

`CN1CC[C@]23c4c5ccc(O)c4O[C@H]2[C@@H](O)C=C[C@H]3[C@H]1C5` [morphine, reference compound]: the “effect on mechanical thresholds of Sham animals” value in experiment [1] is “No significant effect”. Also, the “analgesic effect, ipsilateral paw, at 3 h” value in experiment [1] (setting [8]) is given as “significant analgesic effect”. For the same compound, in experiment [2], the “inhibition of enzymatic activity of CK (production of ATP from phosphocreatine)” value is around 18%. In addition, the “analgesia on right leg 4 hours after injection” value in experiment [3] (intrathecal, 10 nmoles, healthy mice, Holm-Sidak) is recorded as “significant analgesia”. In addition, the “analgesia (mechanical nociceptive threshold vs control)” value in experiment [3] (setting [9]) is “induced a significant analgesia”.
For “peptide AI-25: peptide derived from P4, amino acids 214-238 (SEQ ID NO: 4) of mouse creatine kinase B”, in experiment [4], the “neuropathic pain, ipsilateral paw mechanical threshold” value (“neuropathic pain” below) was “reversed the neuropathic pain” and the “non-cuffed contralateral paw mechanical threshold” value was “did not significantly affect”. For the same compound, the “neuropathic pain” value in experiment [4] (listed as amino acids 214-238) is on record as “present analgesic activity”.
For the compound “peptide KN-50: peptide derived from P4, amino acids 196-246 (SEQ ID NO: 5) of mouse creatine kinase B”, in experiment [5], the “neuropathic pain” value was “reversed the neuropathic pain” and the “non cuffed contralateral paw mechanical threshold” value is “did not affect”. Moreover, in experiment [5] (listed as amino acids 196-246), the “neuropathic pain” value is “present analgesic activity”.
In the case of “peptide P1: peptide consisting of amino acids 1-75 (SEQ ID NO: 2) from the mouse CK-B sequence SEQ ID NO: 1”, the affinity for morphine entry in experiment [6] was “showed an affinity”. Besides, in experiment [3] (setting [10]), the “values of von Frey / sensitivity towards mechanical stimulation” value is given as “close or equal to cut-off” and the “analgesia (mechanical nociceptive threshold vs control)” value is given as “induced a significant analgesia”. In experiment [3] (intrathecal, 20 nmoles, healthy mice, listed as amino acids 1-75), the “values of von Frey / sensitivity towards mechanical stimulation” value is on record as “almost complete insensitivity”. Besides, in experiment [3] (peptide 20 nmoles injected in presence of 10 nmoles of morphine), the “occlusion of analgesic activity by morphine” value is given as “occlusion of analgesic activity”.
As to “peptide P4: peptide consisting of amino acids 184-258 (SEQ ID NO: 3) of the mouse CK-B sequence SEQ ID NO: 1”, the affinity for morphine entry in experiment [6] is on record as “showed an affinity”. In addition, in experiment [7] (cuffed rats), the “neuropathic pain” value is “reverses the neuropathic pain” and the “non-cuffed contralateral paw mechanical threshold” value was “did not affect”. The duration of analgesia result in experiment [7] (cuffed rats, ipsilateral paw) is reported as “at least 6 h”. Moreover, the “neuropathic pain” value in experiment [7] (cuffed rats, listed as peptide 4) was “reversed the neuropathic pain”. Besides, in experiment [7] (sham rats), the “mechanical threshold of the sham group” value was “did not affect”. For the same compound, the “effect on mechanical thresholds of Sham animals” value in experiment [1] is reported as “No significant effect”. In addition, the “basic mechanical nociceptive thresholds of the contralateral hind legs” value in experiment [1] (neuropathic mice) is “do not modify”. Besides, in experiment [1] (setting [8]), the “analgesic effect, ipsilateral paw, at 3 h” value is recorded as “significant analgesic effect” and the “analgesic effect, ipsilateral paw, at 4 h post injection” value was “significant analgesic effect”. In experiment [3] (setting [9]), the “values of von Frey / sensitivity towards mechanical stimulation” value was “close or equal to cut-off” and the “analgesia (mechanical nociceptive threshold vs control)” value is “induced a significant analgesia”. Also, the “values of von Frey / sensitivity towards mechanical stimulation” value in experiment [3] (intrathecal, 10 nmoles, healthy mice, listed as amino acids 184-258) was “almost complete insensitivity”. For the same compound, the “occlusion of analgesic activity by morphine” value in experiment [3] (peptide 10 nmoles injected in presence of 10 nmoles of morphine) is on record as “not observed”.
